The assay has as its target Thymidylate synthase (Mus musculus, UniProt P07607). Briefly: Tested for inhibitory activity against thymidylate synthase of L1210 cells. The format is cell-based. To be noted: read-out: Ki app.
Chain of Thymidylate synthase (P07607 whole entry): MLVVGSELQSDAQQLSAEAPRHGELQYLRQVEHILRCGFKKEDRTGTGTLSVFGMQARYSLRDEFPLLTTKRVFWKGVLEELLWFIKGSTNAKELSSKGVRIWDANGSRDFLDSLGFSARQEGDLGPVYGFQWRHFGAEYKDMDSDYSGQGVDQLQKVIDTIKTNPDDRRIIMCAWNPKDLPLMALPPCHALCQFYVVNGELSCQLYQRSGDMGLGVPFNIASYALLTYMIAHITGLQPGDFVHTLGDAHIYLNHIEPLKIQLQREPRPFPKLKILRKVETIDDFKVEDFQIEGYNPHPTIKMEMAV
With `C#CCN(c1ccc(C(=O)N[C@@H](CCCS(=O)(=O)c2nc[nH]n2)C(=O)O)cc1)[C@@H]1CCc2cc3nc(C)nc(O)c3cc21`, the Ki is 1200 nM. In the case of `C#CCN(c1ccc(C(=O)N[C@@H](CCC(=O)N[C@H](CCC(=O)O)C(=O)O)C(=O)O)cc1)[C@@H]1CCc2cc3nc(C)[nH]c(=O)c3cc21` it was 3.5 nM; in that of `C#CCN(c1ccc(C(=O)N[C@@H](CCC(=O)NC(CCC(=O)O)C(=O)O)C(=O)O)cc1)C1CCc2cc3nc(C)nc(O)c3cc21` (stereo partly specified), 0.42 nM. In the case of `C#CCN(c1ccc(C(=O)N[C@@H](CCC(=O)N[C@H](CCC(=O)O)c2nnn[nH]2)C(=O)O)cc1)[C@@H]1CCc2cc3nc(C)[nH]c(=O)c3cc21`, the Ki was 2.1 nM. In the case of `C#CCN(c1ccc(C(=O)N[C@@H](CCC(=O)NC(CCC(=O)O)c2nnn[nH]2)C(=O)O)cc1)C1CCc2cc3nc(C)nc(O)c3cc21` (stereo partly specified) it was 0.2 nM. In the case of `C#CCN(c1ccc(C(=O)N[C@@H](CCCS(=O)(=O)c2nc[nH]n2)C(=O)O)cc1)[C@H]1CCc2cc3nc(C)nc(O)c3cc21` it was 0.71 nM.

The values above are taken from ChEMBL document CHEMBL1133853, “Cyclopenta[g]quinazoline-based antifolates: the effect of the chirality at the 6-position on the inhibition of thymidylate synthase (TS)” (Bioorg Med Chem Lett, 2001).
